Assay results taken from patent publication US5854002A (Rhone Poulenc, Inc., priority 1996, dated 1998).
Where two headings read alike, the source gives them in different places.

What was measured:
Rat brain = assay: [3H] muscimol binding, rat brain (previous assays of the inventors); details: half-maximal displacement of [3H] muscimol, previous assays by the inventors
From the text: Data from fly heads and rat brains were obtained as described in Table 2.

Drosophila Rdl = target: T1, Drosophila Rdl (Drosophila melanogaster, UniProt P25123); assay: [3H] muscimol radioligand binding assay, membranes of High Five cells infected with vBP8-Rdl
T1 construct: excised the full-length cDNA encoding Rdl; made in house; host or cells: High Five (Trichoplusia ni) cells, baculovirus vBP8-Rdl
T1 sequence (P25123 45-606): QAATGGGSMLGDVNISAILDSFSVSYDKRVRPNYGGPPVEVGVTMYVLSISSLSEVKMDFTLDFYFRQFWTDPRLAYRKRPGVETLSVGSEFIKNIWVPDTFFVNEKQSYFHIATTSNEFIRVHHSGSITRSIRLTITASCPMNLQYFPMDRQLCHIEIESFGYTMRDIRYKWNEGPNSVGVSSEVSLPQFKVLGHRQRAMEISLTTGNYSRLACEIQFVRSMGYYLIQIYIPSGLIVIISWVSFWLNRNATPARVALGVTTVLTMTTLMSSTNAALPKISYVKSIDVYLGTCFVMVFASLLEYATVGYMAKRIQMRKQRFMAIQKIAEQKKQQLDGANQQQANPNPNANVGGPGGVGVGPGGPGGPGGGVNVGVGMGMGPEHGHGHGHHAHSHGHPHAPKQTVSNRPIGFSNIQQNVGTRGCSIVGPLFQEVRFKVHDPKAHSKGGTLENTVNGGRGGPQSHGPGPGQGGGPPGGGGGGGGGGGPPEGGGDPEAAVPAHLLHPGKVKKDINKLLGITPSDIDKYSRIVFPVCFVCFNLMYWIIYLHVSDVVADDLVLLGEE
Procedure: (§1) High Five™ cells (derived from the cabbage loper, Trichoplusia ni, Invitrogen Corp.) were infected with vBP8-Rdl, vBP8-LCCH3, or vBP8-Grd, either singly or in various combinations. Cells were harvested at 3 days post-infection in tubes of approximately 6×10^7 cells per tube, the cells were pelleted by centrifugation, the supernatants discarded, and the pellets immediately stored at -80° C. This amount of tissue is sufficient for one 96-well microtiter plate. Membranes were prepared by first thawing and then resuspending the cell pellet in 25 mL of 10 mM phosphate buffer pH 7.4. The cells were gently homogenized with five strokes in a glass/Teflon homogenizer and the membranes pelleted by centrifugation at 120,000 g for 30 minutes. The membrane pellet was resuspended in 25 mL of 10 mM phosphate buffer pH 7.4, re-pelleted as above, and the pellet finally resuspended in 3 mL of buffer. The protein concentration was determined by the Bradford method (Bradford (1976) Anal. Biochem. 79:248) and then adjusted to 625 μg of protein per mL of 10 mM PBS, pH 7.4.
(§2) The reactions were incubated for 90 minutes at 4° C., and then terminated by filtration through Whatman GF/B glass fiber filters. Filters were washed with two 5 mL aliquots of cold buffer, and the radioactivity remaining on the filters was determined by liquid scintillation. Multiple assays were performed to test numerous compounds.

Housefly heads = details: half-maximal displacement of [3H] muscimol, from Lunt et al. (1985); read-out: IC50, Fly Heads; cited from earlier work
Drosophila Grd and LCCH3 = target: T2, Drosophila Grd and LCCH3 (Drosophila melanogaster, UniProt Q08832+Q24352); assay: [3H] muscimol radioligand binding assay, membranes of High Five cells co-infected with vBP8-Grd/vBP8-LCCH3
T2 construct: made in house; host or cells: High Five (Trichoplusia ni) cells, co-infected with vBP8-Grd and vBP8-LCCH3
T2 sequence (Q24352 59-686): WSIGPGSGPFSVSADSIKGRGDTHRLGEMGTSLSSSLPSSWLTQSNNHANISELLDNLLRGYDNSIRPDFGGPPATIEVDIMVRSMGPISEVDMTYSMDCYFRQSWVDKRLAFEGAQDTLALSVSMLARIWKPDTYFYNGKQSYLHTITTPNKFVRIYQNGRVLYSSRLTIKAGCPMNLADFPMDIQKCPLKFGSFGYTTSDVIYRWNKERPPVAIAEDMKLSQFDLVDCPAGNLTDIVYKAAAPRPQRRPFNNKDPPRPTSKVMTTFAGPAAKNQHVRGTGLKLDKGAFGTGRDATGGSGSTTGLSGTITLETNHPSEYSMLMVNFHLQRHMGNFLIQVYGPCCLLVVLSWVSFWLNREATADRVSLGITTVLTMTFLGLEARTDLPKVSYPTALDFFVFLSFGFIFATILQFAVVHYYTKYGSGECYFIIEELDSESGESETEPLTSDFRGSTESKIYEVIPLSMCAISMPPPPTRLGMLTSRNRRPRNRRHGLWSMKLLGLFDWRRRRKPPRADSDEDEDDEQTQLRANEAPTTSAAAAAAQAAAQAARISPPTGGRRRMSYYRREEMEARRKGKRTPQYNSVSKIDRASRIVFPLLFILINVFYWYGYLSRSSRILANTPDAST
T2 sequence (Q08832 21-496): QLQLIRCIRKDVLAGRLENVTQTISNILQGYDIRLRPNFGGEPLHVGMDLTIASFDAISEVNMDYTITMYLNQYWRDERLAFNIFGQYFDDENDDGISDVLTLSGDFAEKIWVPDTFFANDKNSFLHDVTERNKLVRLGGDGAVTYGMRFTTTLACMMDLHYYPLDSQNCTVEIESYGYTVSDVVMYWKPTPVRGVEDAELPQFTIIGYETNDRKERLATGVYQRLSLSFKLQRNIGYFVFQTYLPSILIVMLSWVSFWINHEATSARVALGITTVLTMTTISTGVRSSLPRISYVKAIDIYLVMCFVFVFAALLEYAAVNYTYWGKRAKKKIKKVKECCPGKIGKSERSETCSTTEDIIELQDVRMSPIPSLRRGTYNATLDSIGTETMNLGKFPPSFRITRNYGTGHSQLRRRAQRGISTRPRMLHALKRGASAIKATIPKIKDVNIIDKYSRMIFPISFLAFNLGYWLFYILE
Procedure: as §1
The radioligand binding assays were composed of 200 μL membrane preparation (containing 125 μg protein), 100 μL of [^3 H] muscimol (to give a final concentration of 5 nM), 20 μL of unlabeled test compound, buffer or unlabeled muscimol, and 680 μL of 10 mM PBS, pH 7.4. […] The reactions were incubated for 90 minutes at 4° C., and then terminated by filtration through Whatman GF/B glass fiber filters. Filters were washed with two 5 mL aliquots of cold buffer, and the radioactivity remaining on the filters was determined by liquid scintillation. Multiple assays were performed to test numerous compounds.

[1] = target: T3, Drosophila Rdl, Grd and LCCH3 (Drosophila melanogaster, UniProt P25123+Q08832+Q24352); assay: [3H] muscimol radioligand binding assay, membranes of High Five cells infected with vBP8-Grd/vBP8-LCCH3/vBP8-Rdl; details: half-maximal displacement of [3H] muscimol
T3 construct: excised the full-length cDNA encoding Rdl; made in house; host or cells: High Five (Trichoplusia ni) cells, co-infected with vBP8-Grd, vBP8-LCCH3 and vBP8-Rdl
T3 sequence (P25123 45-606): T1 sequence (P25123 45-606)
T3 sequence (Q24352 59-686): T2 sequence (Q24352 59-686)
T3 sequence (Q08832 21-496): T2 sequence (Q08832 21-496)
Procedure: as §1, §2

[2] = half-maximal displacement of [3H] muscimol, read-out: IC50, Rdl
[3] = half-maximal displacement of [3H] muscimol, read-out: IC50, Grd/LCCH3

SMILES	IC50 (Rat brain)	IC50 (Drosophila Rdl; [2])	IC50 (Housefly heads)	IC50 (Drosophila Grd and LCCH3; [3])	IC50 (Drosophila Rdl)	IC50 (Drosophila Grd and LCCH3)	IC50 [1]
O=C(O)C1=CCNCC1 [Isoguavacine]	0.289 µM	0.26 µM	100 nM	0.19 µM			
COc1ccc2c(c1OC)C(=O)O[C@@H]2[C@H]1c2cc3c(cc2CCN1C)OCO3 [Hydrastine]	2.61 µM				> 1000 µM	> 1000 µM	
CN1CCc2cc3c(cc2[C@H]1[C@@H]1OC(=O)c2c1ccc1c2OCO1)OCO3 [Bicuculline]	19 µM				> 1000 µM	> 1000 µM	
NCC(CC(=O)O)c1ccc(Cl)cc1 (stereo not drawn) [Baclofen]	> 1000 µM	> 1000 µM		> 1000 µM			
NCCCCC(=O)O [5-amino-valeric acid]	> 1000 µM	2.1 µM		0.749 µM			
NCc1cc(=O)[nH]o1 [Muscimol]	0.043 µM	0.012 µM	30 nM	0.015 µM			23 nM
CP(=O)(O)CCCN [SKF-97541]	> 1000 µM				> 1000 µM	> 1000 µM	
